According to PubChem BioAssay AID1259407 (Chemical Carcinogenesis Research Information System (CCRIS), 2018):
The source made the active and inactive calls. The rule behind the calls is not given here.

Tested on: CCRIS mutagenicity, Ames/micronucleus/aberration tests
Assay: CCRIS mutagenicity studies
Conditions: Test System: AMES SALMONELLA TYPHIMURIUM
[1] = Strain/Indicator: TA97, Metabolic Activation: NONE, Method: PREINCUBATION

Q: What does the source list for CCCC(=O)OCC?
A: mutagenic call [1]: inactive; negative; mutagenic call (Strain/Indicator: TA97, Metabolic Activation: RAT, LIVER, S-9, AROCLOR 1254, Method: PREINCUBATION): inactive; negative; mutagenic call (Strain/Indicator: TA102, Metabolic Activation: NONE, Method: PREINCUBATION): inactive; negative; mutagenic call (Strain/Indicator: TA102, Metabolic Activation: RAT, LIVER, S-9, AROCLOR 1254, Method: PREINCUBATION): inactive; negative

Q: How did the mutagenic call (Strain/Indicator: TA97, Metabolic Activation: HAMSTER, LIVER, S-9, AROCLOR 1254 (10%), Method: PREINCUBATION) turn out when O=CC(Cl)(Cl)Cl was run?
A: The mutagenic call was “inactive; negative”.

Q: And the mutagenic call [1]?
A: Its mutagenic call is “inactive; negative”.

Q: And the mutagenic call (Strain/Indicator: TA97, Metabolic Activation: RAT, LIVER, S-9, AROCLOR 1254 (10%), Method: PREINCUBATION)?
A: Its mutagenic call is “inactive; negative”.

Q: And the mutagenic call (Strain/Indicator: TA98, Metabolic Activation: HAMSTER, LIVER, S-9, AROCLOR 1254 (10%), Method: PREINCUBATION)?
A: The mutagenic call was “inactive; negative”.

Q: What about the mutagenic call (Strain/Indicator: TA98, Metabolic Activation: NONE, Method: PREINCUBATION) of the same compound?
A: The mutagenic call was “inactive; negative”.

Q: What about the mutagenic call (Strain/Indicator: TA98, Metabolic Activation: RAT, LIVER, S-9, AROCLOR 1254 (10%), Method: PREINCUBATION) of the same compound?
A: The mutagenic call was “inactive; negative”.

Q: And the mutagenic call (Strain/Indicator: TA100, Metabolic Activation: HAMSTER, LIVER, S-9, AROCLOR 1254 (5, 10 OR 30%), Method: PREINCUBATION)?
A: Its mutagenic call is “inactive; negative”.

Q: What about the mutagenic call (Strain/Indicator: TA100, Metabolic Activation: RAT, LIVER, S-9, AROCLOR 1254 (5, 10 OR 30%), Method: PREINCUBATION) of the same compound?
A: The mutagenic call was “inactive; negative”.

Q: And the mutagenic call (Strain/Indicator: TA100, Metabolic Activation: RAT, LIVER, S-9, Method: PREINCUBATION)?
A: The mutagenic call was “active; positive”.

Q: What about the mutagenic call (Strain/Indicator: TA1535, Metabolic Activation: HAMSTER, LIVER, S-9, AROCLOR 1254 (10%), Method: PREINCUBATION) of the same compound?
A: The mutagenic call was “inactive; negative”.

Q: What about the mutagenic call (Strain/Indicator: TA1535, Metabolic Activation: NONE, Method: PREINCUBATION) of the same compound?
A: Its mutagenic call is “inactive; negative”.

Q: What about the mutagenic call (Strain/Indicator: TA1535, Metabolic Activation: RAT, LIVER, S-9, AROCLOR 1254 (10%), Method: PREINCUBATION) of the same compound?
A: The mutagenic call was “inactive; negative”.

Q: COc1cc(O)c2c(c1)Cc1cc(C)cc(O)c1C2=O was tested. Which mutagenic call (Strain/Indicator: TA1537, Metabolic Activation: NONE, Method: STANDARD PLATE) did it give?
A: The mutagenic call was “inactive; negative”.

Q: And the mutagenic call (Strain/Indicator: TA1537, Metabolic Activation: S-9, Method: STANDARD PLATE)?
A: Its mutagenic call is “active; positive”.

Q: What does the source list for C[C@H](CN=[N+]=[N-])c1ccccc1?
A: mutagenic call (Strain/Indicator: TA100, Metabolic Activation: NONE, Method: PREINCUBATION): inactive; negative; mutagenic call (Strain/Indicator: TA100, Metabolic Activation: RAT, LIVER, S-9, PCB, Method: PREINCUBATION): active; positive
